Results reported in US11053204B2, “Pyrimidinyloxy benzene derivatives as herbicides” (FMC Corporation, priority 2015, dated 2021).

Key:
Format in all cases: in vivo
[1] = system: barnyardgrass (Echinochloa crus-galli); assay: Test B flooded paddy test, plant response rating; settings: 250 g ai/ha, Flood, scale of 0 to 100 where 0 is no effect and 100 is complete control, 13 to 15 days; for pest or weed control at 250 g/ha: Echinochloa crus-galli, 312 h
Method in brief: (§1)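 Under a constant 3 cm flood, test compounds went directly into the paddy water. Following 13 to 15 days of greenhouse growth, treated species and controls were compared by eye.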

[2] = system: ducksalad (Heteranthera limosa); assay: Test B flooded paddy test, plant response rating; settings: 250 g ai/ha, Flood, scale of 0 to 100 where 0 is no effect and 100 is complete control, 13 to 15 days; for pest or weed control at 250 g/ha: Heteranthera limosa, 312 h
Method in brief: as §1

[3] = system: rice (Oryza sativa); assay: Test B flooded paddy test, plant response rating; settings: 250 g ai/ha, Flood, scale of 0 to 100 where 0 is no effect and 100 is complete control, 13 to 15 days; for plant injury at 250 g/ha: Oryza sativa, 312 h
Method in brief: as §1

[4] = system: sedge, umbrella (small-flower umbrella sedge, Cyperus difformis); assay: Test B flooded paddy test, plant response rating; settings: 250 g ai/ha, Flood, scale of 0 to 100 where 0 is no effect and 100 is complete control, 13 to 15 days; for pest or weed control at 250 g/ha: Cyperus difformis, 312 h
Method in brief: as §1

[5] = system: chickweed (common chickweed, Stellaria media); assay: Test C postemergence, plant response rating; settings: for Plant response rating, Chickweed / pest or weed control at 16 g/ha / pest or weed control at 31 g/ha: scale 0 to 100; for Chickweed plant response rating / pest or weed control at 62 g/ha / pest or weed control at 125 g/ha: scale 0 to 100 (0 no effect, 100 complete control); for pest or weed control at 16 g/ha / pest or weed control at 31 g/ha / pest or weed control at 62 g/ha / pest or weed control at 125 g/ha: Stellaria media, post-emergence
Text: (§2) Seeds of plant species selected from blackgrass (Alopecurus myosuroides), ryegrass, Italian (Italian ryegrass, Lolium multiflorum), wheat (winter wheat, Triticum aestivum), galium (catchweed bedstraw, Galium aparine), corn (Zea mays), crabgrass, large (large crabgrass, Digitaria sanguinalis), foxtail, giant (giant foxtail, Setaria faberii), johnsongrass (Sorghum halepense), lambsquarters (Chenopodium album), morningglory (Ipomoea coccinea), nutsedge, yellow (yellow nutsedge, Cyperus esculentus), pigweed (Amaranthus retroflexus), ragweed (common ragweed, Ambrosia elatior), soybean (Glycine max), barnyardgrass (Echinochloa crus-galli), oilseed rape (Brassica napus), pigweed, palmer (palmer pigweed, Amaranthus palmeri), waterhemp (common waterhemp, Amaranthus rudis), velvetleaf (Abutilon theophrasti), kochia (Kochia scoparia), surinam grass (Brachiaria decumbens), nightshade (eastern black nightshade, Solanum ptycanthum), wild poinsettia (Euphorbia heterophylla), windgrass (Apera spica-venti), and oat, wild (wild oat Avena fatua), were planted into a blend of loam soil and sand or a silt loam soil and treated preemergence with test chemicals formulated in a non-phytotoxic solvent mixture which included a surfactant.
(§3) At the same time, plants selected from these crop and weed species and also chickweed (common chickweed, Stellaria media), buckwheat, wild (wild buckwheat, Polygonum convolvulus), wild mustard (Sinapis arvensis), field poppy (Papaver rhoeas), field violet (Viola arvensis), geranium, cutleaf (cutleaf geranium, Geranium dissectum), Canada thistle (Cirsium arvense), and speedwell (bird's-eye speedwell, Veronica persica), were planted in pots containing Sunshine Redi-Earth® planting medium comprising spaghnum peat moss, vermiculite, starter nutrients and dolomitic limestone and treated with postemergence applications of test chemicals formulated in the same manner. Plants ranged in height from 2 to 18 cm (1- to 4-leaf stage) for postemergence treatments. Treated plants and controls were maintained in a greenhouse for 13 to 15 d, after which time all species were compared to controls and visually evaluated. Plant response ratings, summarized in Table C, are based on a scale of 0 to 100 where 0 is no effect and 100 is complete control. A dash (-) response means no test result.

[6] = system: foxtail, giant (giant foxtail, Setaria faberii); assay: Test C postemergence, plant response rating; settings: for Plant response rating, Foxtail, Giant / pest or weed control at 16 g/ha / pest or weed control at 31 g/ha: scale 0 to 100; for Foxtail, Giant plant response rating / pest or weed control at 62 g/ha / pest or weed control at 125 g/ha: scale 0 to 100 (0 no effect, 100 complete control); for pest or weed control at 16 g/ha / pest or weed control at 31 g/ha / pest or weed control at 62 g/ha / pest or weed control at 125 g/ha: Setaria faberi, post-emergence
Text: as §2, §3

[7] = system: morningglory (Ipomoea coccinea); assay: Test C postemergence, plant response rating; settings: for Plant response rating, Morningglory / pest or weed control at 16 g/ha / pest or weed control at 31 g/ha: scale 0 to 100; for Morningglory plant response rating / pest or weed control at 62 g/ha / pest or weed control at 125 g/ha: scale 0 to 100 (0 no effect, 100 complete control); for pest or weed control at 16 g/ha / pest or weed control at 31 g/ha / pest or weed control at 62 g/ha / pest or weed control at 125 g/ha: Ipomoea, post-emergence
Text: as §2, §3

| Structure (SMILES) | pest or weed control at 250 g/ha [1] [%] | pest or weed control at 250 g/ha [2] [%] | plant injury at 250 g/ha [3] [%] | pest or weed control at 250 g/ha [4] [%] | pest or weed control at 16 g/ha ([5]; 16 g ai/ha) [%] | pest or weed control at 31 g/ha ([5]; 31 g ai/ha) [%] | pest or weed control at 62 g/ha ([5]; 62 g ai/ha) [%] | pest or weed control at 125 g/ha ([5]; 125 g ai/ha) [%] | pest or weed control at 16 g/ha ([6]; 16 g ai/ha) [%] | pest or weed control at 31 g/ha ([6]; 31 g ai/ha) [%] | pest or weed control at 62 g/ha ([6]; 62 g ai/ha) [%] | pest or weed control at 125 g/ha ([6]; 125 g ai/ha) [%] | pest or weed control at 16 g/ha ([7]; 16 g ai/ha) [%] | pest or weed control at 31 g/ha ([7]; 31 g ai/ha) [%] | pest or weed control at 62 g/ha ([7]; 62 g ai/ha) [%] | pest or weed control at 125 g/ha ([7]; 125 g ai/ha) [%] | also measured |
| --- | --- | --- | --- | --- | --- | --- | --- | --- | --- | --- | --- | --- | --- | --- | --- | --- | --- |
| N#CCCOC(=O)c1c(Br)cccc1Oc1ncc(Cl)cn1 [Compound 7] |  |  |  |  |  |  |  |  |  |  |  |  |  |  |  |  | Plant response rating, Barnyardgrass [1]: 0; Plant response rating, Ducksalad [2]: 0; Plant response rating, Rice [3]: 0; Plant response rating, Sedge, Umbrella [4]: 0; Plant response rating, Chickweed ([5]; 16 g ai/ha): 5; Plant response rating, Chickweed ([5]; 31 g ai/ha): 5; Chickweed plant response rating ([5]; 62 g ai/ha): 30; Chickweed plant response rating ([5]; 125 g ai/ha): 50; Plant response rating, Foxtail, Giant ([6]; 16 g ai/ha): 5; Plant response rating, Foxtail, Giant ([6]; 31 g ai/ha): 5; Foxtail, Giant plant response rating ([6]; 62 g ai/ha): 10; Foxtail, Giant plant response rating ([6]; 125 g ai/ha): 15; Plant response rating, Morningglory ([7]; 16 g ai/ha): 5; Plant response rating, Morningglory ([7]; 31 g ai/ha): 25; Morningglory plant response rating ([7]; 62 g ai/ha): 40; Morningglory plant response rating ([7]; 125 g ai/ha): 55 |
| C=CCOC(=O)c1c(Br)cccc1Oc1ncc(Cl)cn1 [Compound 22, 2-propen-1-yl 2-bromo-6-[(5-chloro-2-pyrimidinyl)oxy]benzoate] | 0 | 40 | 0 | 50 | 20 | 60 | 65 | 60 | 10 | 10 | 15 | 25 | 5 | 10 | 35 | 50 |  |
| O=C(OCC(F)(F)C(F)(F)F)c1c(Br)cccc1Oc1ncc(Cl)cn1 [Compound 23, 2,2,3,3,3-pentafluoropropyl 2-bromo-6-[(5-chloro-2-pyrimidinyl)oxy]benzoate] | 0 | 30 | 15 | 95 | 5 | 50 | 50 | 85 | 10 | 35 | 25 | 30 | 10 | 55 | 60 | 35 |  |
